According to article PMC4986685 (Drug Design, Development and Therapy, 2016):

Experiments:
[1] = test system: active GLP-1, glucose, glucagon, insulin, and C-peptide; experiment: Oral glucose tolerance test; type: in vivo, human; settings: significantly smaller than baseline
[2] = Safety assessment; type: in vivo, human; settings: 36 healthy male subjects, 7-day treatments
[3] = cited from earlier work
[4] = test system: HbA1c; settings: 5 mg dose daily for 12 weeks, patients with type 2 DM with inadequate glycemic control with diet and exercise alone; cited from earlier work
[5] = cited from earlier work; remark: listed apart in the source

Structure (SMILES) | AUC of glucose during OGTT relative to baseline [1] | Number of AEs possibly related to the study drug(s) ([2]; all AEs mild) [AEs] | Half-life ([3]; after a single administration, doses between 1.25 and 60 mg, first-in-human study) [h] | Dose dependence of pharmacokinetics ([3]; doses between 1.25 and 60 mg, single administration) | Tolerability ([3]; first-in-human study, single administration) | Reduction of mean HbA1c [4] [% point] | Number of subjects with AEs possibly related to the study drug(s) [2] [subjects] | Fraction eliminated by renal excretion [5]
CC(C)(C)OC[C@@H]1C(=O)NCCN1C(=O)C[C@H](N)Cc1cc(F)c(F)cc1F [Evogliptin] | ~ 0.87 fold | 14 | ≥ 30 | dose proportional pharmacokinetics | well tolerated | 0.66 | – | –
CN(C)C(=N)N=C(N)N [Metformin, reference compound] | – | – | – | – | – | – | 24 | ~ 90 % of absorbed metformin
